According to patent publication US20100093017A1, “Metabolically Competent Cell Lines” (CXR Biosciences Limited, priority 2008, published 2010):

Assays:
[1] = tested on: antioxidant responsive element (ARE); assay: ARE luciferase reporter induction in adenovirus-P450-transduced ARE32 (MCF-7/ARE) cells; assay type: cell-based, human; conditions: BHA 20 μM; for ARE reporter induction: 7-EC 100 μM; for induction of the ARE reporter: MCF-7 control cells or in the presence of CYP3A4 or CYP2D6, 7-E 100 μM
Method: ARE32 cells were seeded in 24-well plates at 2×10^5 cells per well and cultured overnight. Cells were transduced for 2 h with up to three Adeno-P450s at MOI value of 27 pfu/cell in 0.5 ml of culture medium, after which the medium was removed and replaced with fresh medium. Cells were incubated for an additional 48 h and then were treated with chemicals in serum-free medium for 1 day. Then cells were harvested and lysed. The Luciferase Reporter Assay System (Promega) was used to examine reporter gene activity in cell lysates.
In cell line ARE32, the antioxidant responsive element (ARE), activated by Nrf2, is used to drive a luciferase gene as reporter. A functional ARE is found in the 5′ flanking region of genes encoding NQO1, multiple GST isozymes and many other anticarcinogenic/antioxidant genes. Induction of these genes confers cytoprotection against carcinogenesis and acts to minimize the effects of the toxic insult. Therefore, measurement of ARE induction provides useful information into the particular mechanism of toxicity. […] ARE32 control values are from ARE32 cells without virus infection. ARE32 Transduced values are from ARE32 cells infected with three viruses: Ad3A4.F2A.CPR; Ad2D6(His)CPR; and Ad2A6.F2A.1A1 at a total MOI value of 27.
In further experiments, we examined induction of the ARE reporter in MCF-7 cells expressing CYP3A4 and CPR, CYP2A6 and CPR, CYP2D6 and CPR or CYP2A6 and CYP1A1 by either butylated hydroxyanisole, an antioxidant widely used as a food preservative (BHA-20 μM) or 7-ethoxycoumarin, an antioxidant (7-E-100 μM).
With reference to FIG. 5, expression of the luciferase reporter readout is evaluated in comparison to control MCF-7/ARE cells not expressing P450 transgenes (first bar=1).
Butylated hydroxyanisole (BHA) is an antioxidant used as a food additive (E320). […] We examined induction of the ARE reporter in ARE32 cells expressing CYP3A4 and CPR, CYP2A6 and CPR, CYP2D6 and CPR or CYP2A6 and CYP1A1 by either butylated hydroxyanisole (BHA) at 20 μM or 7-ethoxycoumarin (7-EC) at 100 μM (FIG. 8).

HepG2 cells = tested on: HepG2 cells
Method: CYP3A4 and P450 reductase were delivered into HepG2 cells (Hep-3A4) by adenoviral transduction at Multiplicity of Infection (MOI)=8. […] The adenovirus Ad-mock was used to transduce HepG2 cells at MOI=8 as control (Hep-mock). CYP3A4 activity was determined and compared in Hep-3A4 cells and cryopreserved human hepatocytes.

[2] = tested on: cryopreserved human hepatocytes
[3] = ARE32 cells expressing CYP3A4 or CYP2D6 (with CPR)

Compound	ARE reporter induction ([1]; ARE32 cells expressing CYP2A6)	ARE reporter induction [1, 3]	induction of the ARE reporter [1]	effect of glutathione depletion by BSO on cytotoxicity (HepG2 cells; 100 μM BSO, Hep-3A4 and Hep-mock cells)	additional CYP3A4 related cytotoxic effect under glutathione depletion (HepG2 cells; 100 μM BSO, Hep-3A4 vs Hep-mock, at the concentrations used)	cell viability (ATP depletion assay) (HepG2 cells; Hep-3A4 and Hep-mock cells)	concentration at which CYP3A4-related toxic activation was observed (HepG2 cells; Hep-3A4 vs Hep-mock) [µM]	cell viability (ATP depletion assay) [2]
CCOc1ccc2ccc(=O)oc2c1 [7-ethoxycoumarin]	Significant ARE reporter induction	not with CYP3A4 or CYP2D6	little or no induction					
COc1ccc(O)c(C(C)(C)C)c1 [BHA, butylated hydroxyanisole]	Significant ARE reporter induction	not with CYP3A4 or CYP2D6	little or no induction					
CC(=O)Nc1ccc(O)cc1 [acetaminophen]				significant sensitisation	no apparent additional CYP3A4 related cytotoxic effect	dose-dependent decrease in cell viability	10000	
CC/C(=C(\c1ccccc1)c1ccc(OCCN(C)C)cc1)c1ccccc1 [tamoxifen]						dose-dependent decrease in cell viability		dose-dependent decrease in cell viability
